The target of data set [1] is T1, HIV-1 RT-associated RNase H (Human immunodeficiency virus type 1 group M subtype B, UniProt P04585).
T1 construct: The recombinant HIV-1 RT protein; His tag; made in house; host or cells: E. coli strain M15
The experiment in a line: HIV-1 RNase H polymerase-independent cleavage assay. The following applies: compound concentration required to inhibit the HIV-1 RNase H activity by 50%; recombinant HIV-1 RT. It is filed as biochemical.

The subject of data set [2] is human MT-4 cells. The experiment in a line: Cellular cytotoxicity in MT-4 cells. The following applies: preliminary finding.

SMILES strings stand for the structures.

Consider `NCc1cn(-c2ccc(S(N)(=O)=O)cc2)nn1` [Compound 9a], for which, in data set [1], the IC50 was > 100 µM. With `NS(=O)(=O)c1ccc(-n2cc(CO)nn2)cc1` [Compound 9b], the melting point fell in the range of 195 to 197 °C. Besides, the IC50 in data set [1] is > 100 µM. Turning to `NS(=O)(=O)c1ccc(-n2cc(-c3ccccc3)nn2)cc1` [Compound 9c], the melting point was 260 to 261 °C. In addition, the IC50 in data set [1] was > 100 µM. The compound `CCCCCc1ccc(-c2cn(-c3ccc(S(N)(=O)=O)cc3)nn2)cc1` [Compound 9d] displayed a melting point of 253 to 256 °C. For `NS(=O)(=O)c1c(F)c(F)c(-n2cc(CO)nn2)c(F)c1F` [Compound 10b], the melting point was 133 to 134 °C.

Compound `CCCCCc1ccc(-c2cn(-c3c(F)c(F)c(S(N)(=O)=O)c(F)c3F)nn2)cc1` [Compound 10d] gave a melting point of 197 to 198 °C. In data set [2], the cellular cytotoxicity is > 7 µM. With `CCOC(=O)C(=O)CC(=O)/C=C/c1cccn1Cc1ccccc1Cl` [RDS1759, reference compound], the IC50 in data set [1] came to 7 ± 1.5 µM.

(Values after publication PMC5000766, “Inhibitory Effect of 2,3,5,6-Tetrafluoro-4-[4-(aryl)-1H-1,2,3-triazol-1-yl]benzenesulfonamide Derivatives on HIV Reverse Transcriptase Associated RNase H Activities” (International Journal of Molecular Sciences, 2016).)
